Results reported in ChEMBL document CHEMBL4130359, “Indazole-based ligands for estrogen-related receptor α as potential anti-diabetic agents” (Eur J Med Chem, 2017).

Key:
[1] = Oral bioavailability in CD-1 mouse at 20 mg/kg administered via gavage by LC-MS analysis; format: ADME, organism-based; settings: in vivo
[2] = Cmax in Zucker rat sub-chronic fa/fa prediabetic model at 3 mg/kg, po qd measured on day 1 post dose; format: ADME, organism-based; parameters: dose 3 mg/kg, route oral; settings: in vivo
Rattus norvegicus [3] = assay: Effect on PRKD3 gene expression in epididymal white adipose tissue of Zucker rat sub-chronic fa/fa prediabetic model at 10 mg/kg, po qd for 15 days by microarray analysis relative to control; format: functional
Rattus norvegicus [4] = assay: Toxicity in […] chronic ob/ob model assessed as epididymal white adipose tissue weight at 3 mg/kg, po qd for 31 days measured on day 32 (reference value: 3.92 +/- 0.14 g); format: organism-based; settings: in vivo, 744 h
Rattus norvegicus [5] = assay: Effect on HSP90B1 gene expression in epididymal white adipose tissue of Zucker rat sub-chronic fa/fa prediabetic model at 10 mg/kg, po qd for 15 days by microarray analysis relative to control; format: functional
Rattus norvegicus [6] = assay: Toxicity in Zucker rat sub-chronic fa/fa prediabetic model assessed as epididymal white adipose tissue weight at 10 mg/kg, po qd for 31 days measured on day 32 (reference value: 13.9 +/- 0.6 g); format: organism-based; settings: in vivo, 744 h
[7] = Tmax in CD-1 mouse at 20 mg/kg administered via oral gavage by LC-MS analysis; format: ADME, organism-based; settings: in vivo
Rattus norvegicus [8] = assay: Effect on HLA-DRA gene expression in epididymal white adipose tissue of Zucker rat sub-chronic fa/fa prediabetic model at 10 mg/kg, po qd for 15 days by microarray analysis relative to control; format: functional
Rattus norvegicus [9] = assay: Effect on NDUFB10 gene expression in epididymal white adipose tissue of Zucker rat sub-chronic fa/fa prediabetic model at 10 mg/kg, po qd for 15 days by microarray analysis relative to control; format: functional
Rattus norvegicus [10] = assay: Antidiabetic activity in […] chronic ob/ob model assessed as increase in plasma adiponectin level at 3 mg/kg, po qd for 31 days measured on day 32 by ELISA relative to control; format: functional
Rattus norvegicus [11] = assay: Effect on NFKBIB gene expression in epididymal white adipose tissue of Zucker rat sub-chronic fa/fa prediabetic model at 10 mg/kg, po qd for 15 days by microarray analysis relative to control; format: functional
Rattus norvegicus [12] = assay: Toxicity in Zucker rat sub-chronic fa/fa prediabetic model assessed as body weight at 10 mg/kg, po qd for 29 days measured on day 29 post last dose (reference value: 533 +/- 10 g); format: organism-based; settings: in vivo, 696 h
[13] = AUC (0 to 24 hrs) in Zucker rat sub-chronic fa/fa prediabetic model at 1 mg/kg, po qd for 26 days measured on day 26 post last dose; format: ADME, organism-based; parameters: time < 24 hr, dose 1 mg/kg, route oral; settings: in vivo
Rattus norvegicus [14] = format: functional, Zucker
Rattus norvegicus [15] = assay: Decrease in fed plasma glucose level in Zucker rat sub-chronic fa/fa prediabetic model at 10 mg/kg, po qd for 4 days measured on day 5 relative to control; format: functional; parameters: scale not given: the % may be the effect or the level left
Rattus norvegicus [16] = assay: Effect on SYNJ2 gene expression in epididymal white adipose tissue of Zucker rat sub-chronic fa/fa prediabetic model at 10 mg/kg, po qd for 15 days by microarray analysis relative to control; format: functional
Rattus norvegicus [17] = assay: Antidiabetic activity in po dosed Zucker rat chronic ob/ob model assessed as reduction in blood glucose AUC (0 to 120 min) administered once daily for 31 days measured on day 28 post dose by OGTT; format: functional, organism-based
Rattus norvegicus [18] = assay: Effect on PRKCD gene expression in epididymal white adipose tissue of Zucker rat sub-chronic fa/fa prediabetic model at 10 mg/kg, po qd for 15 days by microarray analysis relative to control; format: functional
Rattus norvegicus [19] = assay: Toxicity in Zucker rat sub-chronic fa/fa prediabetic model assessed as increase in body weight at 10 mg/kg, po qd during 10 days study; format: organism-based; settings: in vivo, 240 h
Rattus norvegicus [20] = assay: Effect on NDUFV3 gene expression in epididymal white adipose tissue of Zucker rat sub-chronic fa/fa prediabetic model at 10 mg/kg, po qd for 15 days by microarray analysis relative to control; format: functional
[21] = target: Oxysterols receptor LXR-alpha (Homo sapiens, UniProt Q13133); assay: Antagonist activity at recombinant GST-tagged human LXRalpha LBD assessed as inhibition of TO901317-induced fluorescein-labeled coactivator peptide recruitment preincubated with enzyme followed by coactivator addition by LanthaScreen TR-FRET assay
Sequence of Oxysterols receptor LXR-alpha (Q13133 whole entry, the tested form may be a part): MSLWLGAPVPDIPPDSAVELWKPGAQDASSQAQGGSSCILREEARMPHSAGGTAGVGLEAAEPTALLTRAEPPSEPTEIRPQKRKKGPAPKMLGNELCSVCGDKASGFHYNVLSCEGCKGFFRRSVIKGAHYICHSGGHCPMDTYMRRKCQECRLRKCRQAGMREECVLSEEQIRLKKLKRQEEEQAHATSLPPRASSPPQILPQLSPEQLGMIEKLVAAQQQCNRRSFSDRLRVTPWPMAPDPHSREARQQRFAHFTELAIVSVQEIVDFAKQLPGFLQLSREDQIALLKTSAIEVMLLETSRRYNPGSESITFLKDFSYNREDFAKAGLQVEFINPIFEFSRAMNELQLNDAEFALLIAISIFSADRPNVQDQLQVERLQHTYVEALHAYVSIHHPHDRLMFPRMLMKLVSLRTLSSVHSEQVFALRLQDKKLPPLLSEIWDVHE

Rattus norvegicus [22] = assay: Toxicity in […] chronic ob/ob model assessed as food intake at 3 mg/kg, po qd for 28 days measured on day 1 to 28 during compound dosing (reference value: 170.6 +/- 3 g); format: organism-based; settings: in vivo, 672 h
[23] = AUC (0 to 24 hrs) in […] model at 50 mg/kg, po qd measured on day 1 post dose; format: ADME, organism-based; parameters: dose 50 mg/kg, time < 24 hr, route oral; settings: in vivo
Rattus norvegicus [24] = assay: Effect on NDUFV2 gene expression in epididymal white adipose tissue of Zucker rat sub-chronic fa/fa prediabetic model at 10 mg/kg, po qd for 15 days by microarray analysis relative to control; format: functional
Rattus norvegicus [25] = assay: Effect on CPT1A gene expression in epididymal white adipose tissue of Zucker rat sub-chronic fa/fa prediabetic model at 10 mg/kg, po qd for 15 days by microarray analysis relative to control; format: functional
Rattus norvegicus [26] = assay: Effect on AGPAT3 gene expression in epididymal white adipose tissue of Zucker rat sub-chronic fa/fa prediabetic model at 10 mg/kg, po qd for 15 days by microarray analysis relative to control; format: functional
Rattus norvegicus [27] = assay: Toxicity in […] chronic ob/ob model assessed as decrease in epididymal white adipose tissue weight at administered po qd for 31 days measured on day 32; format: organism-based; settings: in vivo, 744 h
Rattus norvegicus [28] = assay: Effect on ACOT2 gene expression in epididymal white adipose tissue of Zucker rat sub-chronic fa/fa prediabetic model at 10 mg/kg, po qd for 15 days by microarray analysis relative to control; format: functional
Rattus norvegicus [29] = assay: Toxicity in Zucker rat sub-chronic fa/fa prediabetic model assessed as brown adipose tissue weight at 1 mg/kg, po qd for 31 days measured on day 32 (reference value: 2.1 +/- 0.3 g); format: organism-based; settings: in vivo, 744 h
Rattus norvegicus [30] = assay: Effect on PIAS1 gene expression in epididymal white adipose tissue of Zucker rat sub-chronic fa/fa prediabetic model at 10 mg/kg, po qd for 15 days by microarray analysis relative to control; format: functional
Rattus norvegicus [31] = assay: Antidiabetic activity in po dosed Zucker rat chronic ob/ob model assessed as reduction in HbA1c level administered once daily for 31 days measured on day 28 post dose by OGTT; format: functional, organism-based
[32] = Volume of distribution at steady state in Sprague-Dawley rat at 2 mg/kg, iv by LC-MS analysis; format: ADME, organism-based; settings: in vivo, read-out: Vdss
Rattus norvegicus [33] = assay: Toxicity in Zucker rat sub-chronic fa/fa prediabetic model assessed as change in body weight at 3 mg/kg, po qd for 29 days measured on day 1 to 29 during compound dosing (reference value: 140 +/- 7 g); format: organism-based; settings: in vivo, 696 h
[34] = Cmax in Zucker rat sub-chronic fa/fa prediabetic model at 1 mg/kg, po qd for 26 days measured on day 26 post last dose; format: ADME, organism-based; parameters: dose 1 mg/kg, route oral; settings: in vivo
Rattus norvegicus [35] = assay: Effect on ATP5F1 gene expression in epididymal white adipose tissue of Zucker rat sub-chronic fa/fa prediabetic model at 10 mg/kg, po qd for 15 days by microarray analysis relative to control; format: functional

Q: Which results are given for CN1CC[C@@H](N2C(=O)S/C(=C\c3ccc4c(cnn4Cc4ccc(Cl)cc4C(F)(F)F)c3)C2=O)[C@H](F)C1?
A: bioavailability [1]: 52%; Cmax [2]: 0.725 µg/mL; fold change (FC) (Rattus norvegicus [3]): -1.247; Activity (Rattus norvegicus [4]): 3.44 g; fold change (FC) (Rattus norvegicus [5]): -1.258; Activity (Rattus norvegicus [6]): 19.1 g; Tmax [7]: 1.5 h; fold change (FC) (Rattus norvegicus [8]): -1.201; fold change (FC) (Rattus norvegicus [9]): 1.237; fold change (FC) (Rattus norvegicus [10]): 1.4; fold change (FC) (Rattus norvegicus [11]): 1.31; Activity (Rattus norvegicus [12]): 551 g; AUC at 24 h [13]: 3.2 µg·h/mL; Activity (Rattus norvegicus [14]): 134 mg/dL; Activity (Rattus norvegicus [15]): -32%; fold change (FC) (Rattus norvegicus [16]): -1.663; Activity (Rattus norvegicus [17]): Dose-dependent effect; fold change (FC) (Rattus norvegicus [18]): -1.615; Activity (Rattus norvegicus [19]): Non-Toxic; fold change (FC) (Rattus norvegicus [20]): 1.257; IC50 [21]: > 10 µM; Activity (Rattus norvegicus [22]): 159.1 g; AUC(0-t) at 24 h [23]: 16.9 µg·h/mL; fold change (FC) (Rattus norvegicus [24]): 1.44; fold change (FC) (Rattus norvegicus [25]): -1.277; fold change (FC) (Rattus norvegicus [26]): -1.213; Activity (Rattus norvegicus [27]): Dose-dependent effect; fold change (FC) (Rattus norvegicus [28]): 1.364; Activity (Rattus norvegicus [29]): 3.7 g; fold change (FC) (Rattus norvegicus [30]): -1.323; Activity (Rattus norvegicus [31]): Dose-dependent effect; Vd [32]: 11.2 L/kg; Activity (Rattus norvegicus [33]): 160 g; Cmax [34]: 0.316 µg/mL; fold change (FC) (Rattus norvegicus [35]): 1.257
